Source: patent publication US10697960B2, “CXCR4 and ROBO1 expression as markers for autoimmune diabetes” (BOARD OF SUPERVISORS OR LOUISANA STATE UNIVERSITY AND …, priority 2012, dated 2020)
Entries after “also recorded” stand apart in the source; their conditions may differ.

How the values were obtained:
[1] = system: NOD/ShiLtJ T cells on TNFα-activated MS1 islet endothelial cells; assay: Parallel plate flow chamber T cell adhesion assay with SDF-1 peptide mimetic; type: cell-based, mouse; details: MS1 cells treated 4 hours with 10 ng/ml TNFα; 150 mPa
Method: Hydrodynamic flow chamber assays were performed as otherwise described in C. Sharp et al. (2008). Briefly, T cells isolated as described above were labeled with CellTracker Green (C7025; Life Technologies, Carlsbad, Calif., USA), rinsed, and resuspended at a concentration of 2×10^6 cells/ml in phenol red-free Hanks' balanced salt solution (HBSS). The cells were placed in a beaker that had been previously coated with Sigmacote (Sigma-Aldrich), kept at 37° C., and stirred at 60 rev/min. A flow chamber insert and gasket with a 0.5 cm flow width and 250 μm thickness (GlycoTech, Gaithersburg, Md., USA) were used with 35 mm cell culture dishes containing confluent MS1 cell cultures to form a parallel plate flow chamber. To activate endothelial cells, MS1 cells were treated for 4 to 6 hours at 37° C. with 10 ng/ml recombinant mouse TNFα (T7539; Sigma).
For the SDF-1 peptide mimetic T cell adhesion assay, MS1 cells were rinsed with HBSS and treated for 10 minutes with an SDF-1 peptide mimetic (AYWKENKEQ with two branched lysines as a linker between the two motifs, SEQ ID NO 1) at […]. This peptide was a linearized version of a cyclized SDF-1 analogue reported by Tudan et al., “C-terminal cyclization of an SDF-1 small peptide analogue dramatically increases receptor affinity and activation of CXCR4 receptor,” J. Med. Chem., vol. 45, pp. 2024-31 (2002). T cells were pumped through polypropylene tubing by a syringe pump (KD Scientific, Holliston, Mass., USA) across the endothelial monolayer at a physiological shear stress of 150 mPa. Real-time digital video images (minimum 28 frames/second) were captured with an epifluorescence microscope (TE-2000 Eclipse; Nikon, Tokyo, Japan) and digital camera (Model C4742-95-12ER: Hamamatsu Photonics, Hamamatsu, Japan). Simple PCI software (Hamamatsu Photonics) was used to analyze the video and to measure T cell rolling velocities. Cells were considered firmly adherent if they remained stationary for 10 seconds within the field of view. A minimum of three videos per plate and four plates per condition were used for analysis.
We examined whether a linear SDF-1 peptide mimetic containing the receptor-binding site could replicate the effect of full length SDF-1 in blocking adhesion of T cells to activated endothelium. MS1 cells were treated for 4 hours with 10 ng/ml TNFα, followed by treatment for 10 minutes with an SDF-1 peptide mimetic at 200, 1000, or 5000 ng/ml. Cells were then tested in a parallel plate flow chamber cell adhesion assay. Fluorescently labeled T cells obtained from NOD/ShiLtJ mice flowed over the endothelial monolayers at 150 mPa. […] Leucocyte adhesion videos were analyzed to calculate T cell rolling velocity and to determine whether the decrease in firm adhesion was due to a decreased number of rolling cells.

[2] = system: NOD/ShiLtJ T cells on MS1 endothelial cells; assay: Anti-ROBO1 T cell detachment assay on MS1 endothelial monolayers under step-wise shear stress; type: cell-based, mouse; details: TNFα stimulation of MS1 cells versus unstimulated control
Method: T cell detachment assays were performed as otherwise described in C. Sharp et al. (2008). T cells were injected into the tubing via an inlet port upstream of the flow chamber at a concentration of 2×10^6 cells/ml and allowed to firmly adhere under static conditions for 15 minutes. Next, shear stress was initiated and increased in a step-wise manner every 30 seconds as follows: 35, 56, 91, 224, 504, and 980 mPa. The assay was recorded by video, which was analyzed to determine the percentage of cells detached at the end of each shear stress interval. For the anti-ROBO1 detachment assay, MS1 cells were treated for […] at 37° C. with TNFα as described above and then with 100 ng/ml recombinant mouse SDF-1α (460-SD; R&D Systems). T cells were pre-treated for 30 minutes at 37° C. with 20 μg/ml ROBO1 blocking antibody (GT15144; Neuromics, Edina, Minn., USA) or isotype control (GT15900; Neuromics).
Having established that T cell levels of ROBO1 differ between C57BL/6J and NOD/ShiLtJ mice, we investigated whether SDF-1-mediated firm adhesion defects were dependent on ROBO1-SLIT2 binding. We used a parallel plate flow chamber detachment assay. NOD/ShiLtJ T cells were first allowed to statically adhere to islet endothelial cell monolayers. […]

**Q.** What does the source list for TNFα?
**A.** TNFα-induced adhesion versus untreated endothelium [1]: five times greater; T cell attachment / resistance to shear-mediated detachment [2]: increased attachment; also recorded: increased the resistance of T cells to shear-mediated detachment
